Measurements as given in ChEMBL document CHEMBL4507291 (2021).

How the values were obtained:
Rattus norvegicus = species: Rattus norvegicus; experiment: Protein Serine/Threonine Kinase, PKC, Non-Selective Eurofins-Panlabs enzyme assay; conditions: Compound concentration 10.0 uM
[1] = molecular target: Ribosomal protein S6 kinase alpha-6 (Homo sapiens) (UniProt Q9UK32); experiment: RPS6KA6 (RSK4) Kinase screen; conditions: Compound concentration 1.0 uM
[2] = molecular target: PI3-kinase p110-delta/p85-alpha (Homo sapiens) (UniProt P27986+O00329); experiment: PIK3CD/PIK3R1 (p110 delta/p85 alpha) Kinase screen; type: protein-complex assay; conditions: Compound concentration 1.0 uM
[3] = molecular target: T1, Ephrin type-B receptor 2 (Homo sapiens) (UniProt P29323); experiment: EPHB2 Kinase screen; conditions: Compound concentration 1.0 uM
T1 sequence (whole entry): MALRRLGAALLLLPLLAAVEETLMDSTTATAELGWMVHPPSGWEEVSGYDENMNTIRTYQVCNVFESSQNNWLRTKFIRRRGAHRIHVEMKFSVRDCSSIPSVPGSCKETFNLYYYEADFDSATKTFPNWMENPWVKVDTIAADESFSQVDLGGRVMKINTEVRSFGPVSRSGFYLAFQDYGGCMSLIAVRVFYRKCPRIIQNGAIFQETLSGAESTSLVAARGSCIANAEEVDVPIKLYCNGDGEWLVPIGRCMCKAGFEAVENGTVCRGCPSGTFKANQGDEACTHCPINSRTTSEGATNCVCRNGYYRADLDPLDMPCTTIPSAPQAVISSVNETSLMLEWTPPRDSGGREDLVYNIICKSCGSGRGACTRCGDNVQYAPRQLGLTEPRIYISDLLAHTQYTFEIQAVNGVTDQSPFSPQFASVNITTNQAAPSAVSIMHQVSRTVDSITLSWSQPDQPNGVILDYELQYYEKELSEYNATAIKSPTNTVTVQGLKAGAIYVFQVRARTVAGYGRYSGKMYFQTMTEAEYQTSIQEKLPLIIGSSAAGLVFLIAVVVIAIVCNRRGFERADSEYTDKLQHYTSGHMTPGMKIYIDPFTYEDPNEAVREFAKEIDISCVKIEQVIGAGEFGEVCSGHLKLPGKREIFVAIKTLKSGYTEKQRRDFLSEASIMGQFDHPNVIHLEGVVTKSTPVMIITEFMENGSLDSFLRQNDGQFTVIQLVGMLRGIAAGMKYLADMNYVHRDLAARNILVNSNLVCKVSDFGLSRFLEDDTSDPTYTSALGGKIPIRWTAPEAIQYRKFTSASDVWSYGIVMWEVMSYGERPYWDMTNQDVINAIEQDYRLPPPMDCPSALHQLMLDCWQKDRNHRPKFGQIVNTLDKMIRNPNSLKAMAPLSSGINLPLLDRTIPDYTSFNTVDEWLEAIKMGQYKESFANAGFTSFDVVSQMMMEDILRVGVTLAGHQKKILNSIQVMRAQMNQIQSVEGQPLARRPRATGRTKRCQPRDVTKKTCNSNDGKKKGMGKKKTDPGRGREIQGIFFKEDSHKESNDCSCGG

[4] = molecular target: Protein kinase C delta type (Homo sapiens) (UniProt Q05655); experiment: PRKCD (PKC delta) Kinase screen; conditions: Compound concentration 1.0 uM
Protein kinase C delta type (Homo sapiens), sequence (Q05655 whole entry, looked up): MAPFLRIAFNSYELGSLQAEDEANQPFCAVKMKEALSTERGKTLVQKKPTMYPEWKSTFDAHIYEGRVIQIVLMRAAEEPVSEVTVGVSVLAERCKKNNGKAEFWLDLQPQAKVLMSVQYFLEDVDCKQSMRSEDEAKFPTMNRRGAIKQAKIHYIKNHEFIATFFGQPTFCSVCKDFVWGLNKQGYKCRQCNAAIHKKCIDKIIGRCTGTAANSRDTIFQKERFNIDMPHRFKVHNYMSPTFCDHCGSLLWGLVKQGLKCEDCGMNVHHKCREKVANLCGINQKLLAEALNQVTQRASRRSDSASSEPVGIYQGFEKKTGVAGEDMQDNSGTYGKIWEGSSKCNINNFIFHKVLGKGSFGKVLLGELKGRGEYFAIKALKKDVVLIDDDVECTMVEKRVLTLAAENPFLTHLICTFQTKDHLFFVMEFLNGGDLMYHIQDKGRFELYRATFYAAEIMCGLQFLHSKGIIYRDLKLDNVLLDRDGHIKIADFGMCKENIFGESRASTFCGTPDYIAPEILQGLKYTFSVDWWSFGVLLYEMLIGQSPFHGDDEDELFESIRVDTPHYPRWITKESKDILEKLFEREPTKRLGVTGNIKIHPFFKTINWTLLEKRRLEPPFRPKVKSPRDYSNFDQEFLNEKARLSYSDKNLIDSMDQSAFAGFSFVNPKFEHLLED

[5] = molecular target: Calcium/calmodulin-dependent protein kinase type II subunit alpha (Homo sapiens) (UniProt Q9UQM7); experiment: CAMK2A (CaMKII alpha) Kinase screen; conditions: Compound concentration 1.0 uM
Calcium/calmodulin-dependent protein kinase type II subunit alpha (Homo sapiens), sequence (Q9UQM7 whole entry): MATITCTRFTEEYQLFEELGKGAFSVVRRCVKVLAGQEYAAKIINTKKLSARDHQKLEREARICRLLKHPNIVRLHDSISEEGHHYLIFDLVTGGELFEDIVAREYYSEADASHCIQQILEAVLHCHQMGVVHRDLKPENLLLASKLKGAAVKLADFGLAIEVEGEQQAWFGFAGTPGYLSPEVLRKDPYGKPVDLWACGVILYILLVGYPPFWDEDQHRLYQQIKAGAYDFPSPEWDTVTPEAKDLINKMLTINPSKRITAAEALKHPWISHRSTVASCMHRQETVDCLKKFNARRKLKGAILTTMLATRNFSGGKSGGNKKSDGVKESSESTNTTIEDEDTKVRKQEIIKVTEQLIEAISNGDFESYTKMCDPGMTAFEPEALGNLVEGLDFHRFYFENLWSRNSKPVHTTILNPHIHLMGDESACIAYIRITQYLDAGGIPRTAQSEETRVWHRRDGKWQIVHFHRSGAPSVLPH

[6] = tested on: Serine/threonine-protein kinase B-raf (Homo sapiens), P15056 [V600E]; experiment: BRAF V599E Kinase screen; conditions: Compound concentration 1.0 uM
Serine/threonine-protein kinase B-raf (Homo sapiens), P15056 [V600E], sequence (P15056 whole entry V600E): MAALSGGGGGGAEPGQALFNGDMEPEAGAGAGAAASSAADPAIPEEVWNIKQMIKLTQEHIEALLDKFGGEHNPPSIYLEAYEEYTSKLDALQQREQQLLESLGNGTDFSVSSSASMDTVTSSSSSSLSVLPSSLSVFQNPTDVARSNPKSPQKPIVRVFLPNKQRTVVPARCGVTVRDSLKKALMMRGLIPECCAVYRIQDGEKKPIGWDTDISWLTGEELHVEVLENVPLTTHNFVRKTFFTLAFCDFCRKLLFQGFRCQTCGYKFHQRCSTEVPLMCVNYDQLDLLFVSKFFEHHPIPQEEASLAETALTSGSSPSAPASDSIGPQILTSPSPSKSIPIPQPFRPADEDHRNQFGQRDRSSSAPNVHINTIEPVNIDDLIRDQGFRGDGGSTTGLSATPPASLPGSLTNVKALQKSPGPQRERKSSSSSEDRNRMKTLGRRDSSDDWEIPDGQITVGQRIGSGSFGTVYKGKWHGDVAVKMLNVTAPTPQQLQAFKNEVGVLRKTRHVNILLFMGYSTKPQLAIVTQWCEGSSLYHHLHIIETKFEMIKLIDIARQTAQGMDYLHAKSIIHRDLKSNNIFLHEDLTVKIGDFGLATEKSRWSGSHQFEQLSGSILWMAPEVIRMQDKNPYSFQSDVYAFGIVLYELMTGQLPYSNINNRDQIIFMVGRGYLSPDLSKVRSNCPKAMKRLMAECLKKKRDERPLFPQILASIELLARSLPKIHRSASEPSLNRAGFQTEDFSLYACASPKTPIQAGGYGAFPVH

[7] = molecular target: Glutamate receptor ionotropic, kainate (Rattus norvegicus) (UniProt P22756+Q01812+P42260+P42264+Q63273); experiment: Inhibition of Glutamate, Kainate at 10 µM in the Eurofins-Panlabs radioligand binding assay (Eurofins_assay_232700); conditions: Compound concentration 10.0 uM
[8] = molecular target: T2, Discoidin domain-containing receptor 2 (Homo sapiens) (UniProt Q16832); experiment: DDR2 Kinase screen; conditions: Compound concentration 1.0 uM
T2 sequence (whole entry): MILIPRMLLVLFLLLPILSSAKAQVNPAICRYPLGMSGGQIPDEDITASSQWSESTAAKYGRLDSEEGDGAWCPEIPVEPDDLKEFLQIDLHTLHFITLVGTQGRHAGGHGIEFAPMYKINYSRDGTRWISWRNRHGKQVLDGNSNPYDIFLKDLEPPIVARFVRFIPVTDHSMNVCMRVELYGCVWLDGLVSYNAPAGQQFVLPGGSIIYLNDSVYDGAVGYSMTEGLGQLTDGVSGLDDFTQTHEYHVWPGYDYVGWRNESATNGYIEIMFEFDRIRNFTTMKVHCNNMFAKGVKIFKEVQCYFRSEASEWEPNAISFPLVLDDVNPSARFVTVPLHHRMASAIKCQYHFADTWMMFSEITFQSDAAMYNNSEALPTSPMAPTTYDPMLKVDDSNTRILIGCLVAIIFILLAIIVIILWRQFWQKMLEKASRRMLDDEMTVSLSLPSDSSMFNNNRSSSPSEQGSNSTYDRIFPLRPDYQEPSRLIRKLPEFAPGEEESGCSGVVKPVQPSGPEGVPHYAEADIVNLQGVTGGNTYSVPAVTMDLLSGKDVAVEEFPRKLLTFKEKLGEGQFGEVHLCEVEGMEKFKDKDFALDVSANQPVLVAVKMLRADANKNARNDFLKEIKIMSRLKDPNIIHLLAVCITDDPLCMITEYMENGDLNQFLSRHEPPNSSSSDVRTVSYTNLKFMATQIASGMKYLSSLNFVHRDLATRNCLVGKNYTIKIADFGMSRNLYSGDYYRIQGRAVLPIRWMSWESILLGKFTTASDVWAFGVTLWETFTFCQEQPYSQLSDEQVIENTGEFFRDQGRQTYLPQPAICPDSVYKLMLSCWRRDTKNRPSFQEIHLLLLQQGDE

Measured: inhibition

Ribosomal protein S6 kinase alpha-6 (Homo sapiens), sequence (Q9UK32 whole entry): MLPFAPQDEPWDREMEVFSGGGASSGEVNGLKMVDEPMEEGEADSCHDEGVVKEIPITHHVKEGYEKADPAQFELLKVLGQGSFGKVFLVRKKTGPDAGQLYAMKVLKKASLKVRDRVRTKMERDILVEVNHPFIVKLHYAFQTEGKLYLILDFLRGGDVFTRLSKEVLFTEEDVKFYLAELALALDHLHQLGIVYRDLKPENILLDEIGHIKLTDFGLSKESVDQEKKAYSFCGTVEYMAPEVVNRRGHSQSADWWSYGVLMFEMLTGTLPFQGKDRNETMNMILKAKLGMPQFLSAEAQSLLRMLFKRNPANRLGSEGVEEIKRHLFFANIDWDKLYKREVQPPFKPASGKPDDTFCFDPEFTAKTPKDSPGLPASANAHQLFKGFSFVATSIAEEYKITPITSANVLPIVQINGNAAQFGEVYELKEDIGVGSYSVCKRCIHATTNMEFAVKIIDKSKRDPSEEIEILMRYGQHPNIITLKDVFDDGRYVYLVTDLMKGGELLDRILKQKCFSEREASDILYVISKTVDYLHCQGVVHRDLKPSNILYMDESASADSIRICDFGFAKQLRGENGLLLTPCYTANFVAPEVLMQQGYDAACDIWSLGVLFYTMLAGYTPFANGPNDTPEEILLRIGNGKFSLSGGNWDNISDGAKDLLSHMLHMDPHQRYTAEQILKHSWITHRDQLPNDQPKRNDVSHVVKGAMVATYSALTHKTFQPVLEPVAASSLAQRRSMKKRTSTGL

C[C@@H]1CN(c2cc(-c3n[nH]c4ccc(OC5(C)CC5)cc34)ncn2)C[C@H](C)O1 [MLi-2]
inactive: Rattus norvegicus 26% | [1] 3.23% | [2] 2.08% | [3] -1.14% | [4] 3.65% | [5] 7.96% | [6] 10.4% | [7] 12% | [8] 3.64%
